≈ marks a conversion by molar mass, not a printed value.
Experiment: physchem
Conditions: water
Description: Solubility of the compound in water at 35 degC

Row | Compound | solubility [µg/mL]
1 | CC(C)CCC[C@@H](C)[C@H]1CC[C@H]2[C@@H]3CC[C@H]4C[C@@H](O)CC[C@]4(C)[C@H]3CC[C@]12C | 0.009 (≈ 0.0232 µM)

Experiment: physchem
Conditions: octanol/water
Description: Lipophilicity, log P of the compound

Row | logP | Compound
2 | -0.44 | c1cncnc1 [PYRIMIDINE]
3 | 4.07 | C1CCCCCCC1 [CYCLOOCTANE]
4 | 4.93 | CCCCCCCC [OCTANE]

Row | Compound | logP
5 | c1ccc2c(c1)CCNC2 [1,2,3,4-TETRAHYDROISOQUINOLINE] | 1.71

Experiment: Solubility of the compound at pH 7.4
Format: physicochemical
Conditions: buffer

Row | solubility [µg/mL] | Compound
6 | 5.89 (≈ 17.3 µM) | O=C(Nc1ccc(-c2nnc(-c3ccccc3)o2)cc1)c1ccccc1
7 | 5 (≈ 13.9 µM) | O=C(Nc1ccc(-c2nnc(-c3ccccc3)o2)cc1)c1ccc(F)cc1
8 | 6.12 (≈ 17.9 µM) | O=C(Nc1ccc(-c2nc(-c3ccccc3)no2)cc1)c1ccccc1
9 | 5.23 (≈ 14.6 µM) | O=C(Nc1ccc(-c2nc(-c3ccccc3)no2)cc1)c1ccc(F)cc1

Experiment: Solubility of the compound
Format: physicochemical
Conditions: not given

Row | solubility [µg/mL] | Compound
10 | 7 (≈ 62.4 µM) | C1CCCCCCC1 [CYCLOOCTANE]
11 | 1300 (≈ 8900 µM) | Oc1cccc2cncnc12
12 | 5660 (≈ 43800 µM) | c1ccc2cnccc2c1 [ISOQUINOLINE]
13 | 6600 (≈ 45200 µM) | Oc1cccc2nccnc12
14 | 600 (≈ 4110 µM) | Oc1cccc2ccnnc12
15 | 1 (≈ 8.75 µM) | CCCCCCCC [OCTANE]

Row | Compound | solubility [µg/mL]
16 | C=CCCCCCC | 3 (≈ 26.7 µM)

Experiment: Dissociation constant, pKa of the compound
Format: physicochemical
Conditions: not given

Row | pKa | Compound
17 | 0.7 | c1cnccn1 [PYRAZINE]

Source: ChEMBL document CHEMBL4177661, “Improvement in aqueous solubility achieved via small molecular changes” (Bioorg Med Chem Lett, 2017)
